According to patent US20190040025A1, “INDOLEAMINE 2,3-DIOXYGENASE INHIBITOR, PREPARATION METHOD THEREFOR, AND APPLICATION” (Jiangsu Hansoh Pharmaceutical Group Co., Ltd., priority 2016, published 2019):

Legend:
[1] = target: T1, indoleamine 2,3-dioxygenase (IDO) in HeLa cells (Homo sapiens, UniProt P14902); assay: Cell model test for IDO activity inhibition (interferon γ induced HeLa cells); type: cell-based; conditions: interferon γ 50 ng/mL, 24 hours, read-out: Cytological Test IC50
T1 construct: Interferon γ induced the expression of IDO in HeLa cells; host or cells: HeLa cells induced with interferon γ
T1 sequence (P14902 whole entry): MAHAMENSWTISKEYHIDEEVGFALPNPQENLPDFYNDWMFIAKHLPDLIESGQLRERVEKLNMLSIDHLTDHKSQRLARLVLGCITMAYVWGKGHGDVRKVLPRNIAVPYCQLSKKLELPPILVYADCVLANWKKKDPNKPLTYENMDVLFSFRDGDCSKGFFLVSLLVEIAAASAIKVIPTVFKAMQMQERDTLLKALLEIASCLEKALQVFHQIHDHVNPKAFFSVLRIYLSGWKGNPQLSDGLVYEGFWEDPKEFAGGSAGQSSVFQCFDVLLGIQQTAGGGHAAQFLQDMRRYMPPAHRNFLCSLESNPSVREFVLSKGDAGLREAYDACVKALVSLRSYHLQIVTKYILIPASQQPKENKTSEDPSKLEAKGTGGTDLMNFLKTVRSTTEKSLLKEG
Procedure: Interferon γ induced the expression of IDO in HeLa cells. This model was used to test the inhibitory activity of compounds on indoleamine 2,3-dioxygenase (IDO). The culture medium of HeLa cells (ATCC) was phenol red-free RPMI-1640 containing 100 μM L-tryptophan. The stock solution of the test compound was prepared to 10 mM with dimethyl sulfoxide, and diluted with dimethyl sulfoxide to the highest concentration of the test during the experiment, then diluted in three-fold gradient, and generally diluted to 8 to 10 concentration points. Duplicate wells were set for each concentration point. The final concentration of DMSO was 0.5%, and internal reference compound was included in each experiment.
The procedure of the experiment was as follows: 20,000 HeLa cells (ATCC) per well were added on a 96-well culture plate and incubated overnight. After 24 hours, interferon γ (final concentration of 50 ng/mL) and different concentrations of the test compound and the internal reference compound were added to the incubated cells. After 24 hours, 140 μL of the supernatant/well was transferred to a new 96-well plate, and 10 μL of 6.1 N trichloroacetic acid was added to each well. The plate was incubated for 30 minutes at 50° C. to hydrolyze N-formyl-kynurenine to kynurenine. The reaction mixture was centrifuged at 2500 rpm for 10 minutes to remove the precipitate, and the supernatant (100 μL) was transferred to another new 96-well plate. 100 μL of 2% (W/V) p-(dimethylamino)benzaldehyde (p-DMBA)/glacial acetic acid solution was added to each well. The absorbance at 490 nm was read on a BioTek Synergy H1 microplate reader […].
The original data of the absorbance at 490 nm read on a microplate reader were analyzed. The inhibition of IDO enzyme activity was calculated at different concentrations of the test compound. The half-inhibitory concentration IC50 value of the compound was obtained by non-linear fitting analysis of inhibition percentage data by GraphPad Prism software.

[2] = target: T2, Human indoleamine 2,3-dioxygenase (IDO) (Homo sapiens, UniProt P14902); assay: Enzymatic test for IDO activity inhibition; type: biochemical; conditions: 40 nM IDO enzyme, 0.2 mM L-tryptophan, 60 minutes at 30° C.
T2 construct: purchased BPS Bioscience Inc
T2 sequence (P14902 whole entry): as above
Procedure: Human indoleamine 2,3-dioxygenase (IDO) was purchased from BPS Bioscience Inc. The enzymatic reaction of idoleamine 2,3-dioxygenase (IDO) was performed in a 96-well plate with a reaction volume of 20 μL. The reaction conditions were: 40 nM IDO enzyme, 0.2 mM L-tryptophan, 50 mM KPB (pH 6.5) buffer, 20 mM sodium L-L-ascorbate, 10 μM methylene blue, 0.2 mg/mL catalase, different concentrations of compounds containing <1% dimethyl sulfoxide. After reacting for 60 minutes at 30° C., 5 μL of 30% (w/v) trichloroacetic acid (in 50 mM KPB buffer) weres added to each well. The plate was incubated for 30 minutes at 50° C. to hydrolyze N-formyl-kynurenine to kynurenine. 25 μL of 2% (w/v) p-(dimethylamino)benzaldehyde (p-DMBA)/glacial acetic acid solution were added to each well. The absorbance at 490 nm was read on a BioTek Synergy H1 microplate reader […].
The stock solution of the test compound was prepared to 10 mM with dimethyl sulfoxide, diluted with dimethyl sulfoxide to the highest concentration of the test during the experiment, then diluted in 1:3 gradient, and generally diluted to 8 to 10 concentration points. Duplicate wells were set for each concentration point, and one reference compound was included in each experiment. The original data of the absorbance at 490 nm read on a microplate reader were analyzed. The inhibition of IDO enzyme activity was calculated at different concentrations of the test compound. The half-inhibitory concentration IC50 value of the compound was obtained by non-linear fitting analysis of inhibition percentage data by GraphPad Prism software.

Row | SMILES | IC50 [1] | IC50 [2]
1 | O=C(NCCNc1nonc1/C(=N/O)Nc1ccc(F)c(Br)c1)C(=O)NC1CC1 [Example 7, (Z)—N^1-(2-((4-(N-(3-bromo-4-fluorophenyl)-N′-hydroxycarbamimidoyl)-1,2,5-oxadiazol-3-yl)amino)ethyl)-N^2-cyclopropyloxalamide] | 53 nM | 53 nM
2 | NS(=O)(=O)NC1CC(Nc2nonc2/C(=N/O)Nc2ccc(F)c(Br)c2)C1 (stereo not drawn) [Example 11, (Z)—N-(3-bromo-4-fluorophenyl)-N′-hydroxy-4-((3-(sulfamoylamino)cyclobutyl)amino)-1,2,5-oxadiazole-3-carboximidamide] | 38 nM | 42 nM
3 | CCS(=O)(CCNc1nonc1/C(=N/O)Nc1ccc(F)c(Br)c1)=NC (stereo not drawn) [Example 17, (Z)—N-(3-bromo-4-fluorophenyl)-N′-hydroxy-4-((2-(N-methylethylsulfonimidoyl)ethyl)amino)-1,2,5-oxadiazole-3-carboximidamide] | 16 nM | 75 nM
4 | NS(=O)(=O)NC1CCC(Nc2nonc2/C(=N/O)Nc2ccc(F)c(Br)c2)CC1 (stereo not drawn) [Example 10, (Z)—N-(3-bromo-4-fluorophenyl)-N′-hydroxy-4-((4-(sulfamoylamino)cyclohexyl)amino)-1,2,5-oxadiazole-3-carboximidamide] | 37 nM | 19 nM
5 | CCNC(=O)C(=O)NCCNc1nonc1/C(=N/O)Nc1ccc(F)c(Br)c1 [Example 3, (Z)—N^1-(2-((4-(N-(3-bromo-4-fluorophenyl)-N′-hydroxycarbamimidoyl)-1,2,5-oxadiazol-3-yl)amino)ethyl)-N^2-ethyloxalamide] | 20 nM | 56 nM

Continued by falling IC50 [1], values first:

Row | IC50 [1] | IC50 [2] | SMILES
6 | 47 nM | 64 nM | Cc1ccc(S(=O)(=O)N=S(C)(=O)NCCNc2nonc2C(=NO)Nc2ccc(F)c(Br)c2)cc1 (stereo not drawn) [Example 13, (Z)—N-(3-bromo-4-fluorophenyl)-N′-hydroxy-4-{[2-({S-methyl-N-[(4-methylphenyl)sulfonyl]sulfonimidoyl}amino)ethyl]amino}-1,2,5-oxadiazole-3-carboximidamide]
7 | 33 nM | 76 nM | O=C(NO)C(=O)NCCNc1nonc1/C(=N/O)Nc1ccc(F)c(Br)c1 [Example 8, (Z)—N^1-(2-((4-(N-(3-bromo-4-fluorophenyl)-N′-hydroxycarbamimidoyl)-1,2,5-oxadiazol-3-yl)amino)ethyl)-N^2-hydroxyoxalamide]
8 | 19 nM | 66 nM | CN=S(C)(=O)CCNc1nonc1/C(=N/O)Nc1ccc(F)c(Br)c1 (stereo not drawn) [Example 16, (Z)—N-(3-bromo-4-fluorophenyl)-4-((2-(N,S-dimethylsulfonimidoyl)ethyl)amino)-N′-hydroxy-1,2,5-oxadiazole-3-carboximidamide]
9 | 18 nM | 71 nM | CNC(=O)C(=O)NCCNc1nonc1/C(=N/O)Nc1ccc(F)c(Br)c1 [Example 2, (Z)—N^1-(2-((4-(N-(3-bromo-4-fluorophenyl)-N′-hydroxycarbamimidoyl)-1,2,5-oxadiazol-3-yl)amino)ethyl)-N^2-methyloxalamide]
